Data reported in patent publication US7026339B2, “Inhibitors of HCV NS5B polymerase” (priority 2003, dated 2006).
Like-named read-outs stand apart in the source and are kept apart here.

System: HuH-7 replicon cells 5–15 and 9–13 (HCV replication)
Assay: Inhibition of viral replication in HuH-7 replicon cells (HCV RNA / GAPDH RNA by multiplex RT-PCR)
Type: cell-based
Conditions: Hepatitis C virus
Method in brief: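 HCV and GAPDH RNA were measured by multiplex TaqMan RT-PCR (HCV 5′ untranslated region) after 3-day compound treatment at 37 °C, final 100 μM–1 μM in 1% DMSO. Cells were plated 24 h beforehand at 7×10^3/well. Read-out: HCV-to-GAPDH ratio expressed as percent control versus untreated cells.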

[1] = 72 h, inhibiting 50% of replication, HuH-7 replicon cells, 3 days, read-out: IC50

Compound | IC50 [1] | IC50 (Huh-7, 72 h)
COc1cc(OC)c(CC(=O)N/N=C/c2ccccc2OS(=O)(=O)c2ccc(C(F)(F)F)cc2)c(OC)c1 [Compound 66, 2-((E)-{2-[2-(2,4,6-trimethoxyphenyl)acetyl]hydrazono}methyl)-phenyl 4-(trifluoromethyl)benzenesulfonate] | 5 to 50 µM | 
CCOc1ccc(CC(=O)N/N=C/c2ccccc2OS(=O)(=O)c2ccc(C(F)(F)F)cc2)cc1 [Compound 67, 2-((E)-{2-[2-(4-ethoxyphenyl)acetyl]hydrazono}methyl)-phenyl 4-(trifluoromethyl)benzenesulfonate] | 5 to 50 µM | 
O=C(Cc1ccc2ccccc2c1)N/N=C/c1ccccc1OS(=O)(=O)c1ccc(C(F)(F)F)cc1 [Compound 68, 2-((E)-{2-[2-(2-naphthyl)acetyl]hydrazono}methyl)phenyl4-(trifluoromethyl)benzenesulfonate] | < 5 µM | 
CS(=O)(=O)c1ccc(CC(=O)N/N=C/c2ccccc2OS(=O)(=O)c2ccc(C(F)(F)F)cc2)cc1 [Compound 69, 2-[(E)-(2-{2-[4-(methylsulfonyl)phenyl]acetyl}hydrazono)-methyl]phenyl 4-(trifluoromethyl)benzenesulfonate] | > 50 µM | 
COc1ccc(CC(=O)N/N=C/c2ccccc2OS(=O)(=O)c2ccc(C(F)(F)F)cc2)cc1Br [Compound 70, 2-((E)-{2-[2-(3-bromo-4-methoxyphenyl)acetyl]hydrazono}methyl)-phenyl 4-(trifluoromethyl)benzenesulfonate] | < 5 µM | 
O=C(N/N=C/c1ccccc1OS(=O)(=O)c1ccc(C(F)(F)F)cc1)c1cccc2ccccc12 [Compound 71, 2-{(E)-[2-(1-naphthoyl)hydrazono]methyl}phenyl 4-(trifluoromethyl)benzenesulfonate] | < 5 µM | 
O=C(N/N=C/c1ccccc1OS(=O)(=O)c1ccc(C(F)(F)F)cc1)c1cc(Cl)ccc1Cl [Compound 72, 2-{(E)-[2-(2,5-dichlorobenzoyl)hydrazono]methyl}phenyl4-(trifluoromethyl)benzenesulfonate] | < 5 µM | 
O=C(N/N=C/c1ccccc1OS(=O)(=O)c1ccc(C(F)(F)F)cc1)c1ccccc1Cl [Compound 73, 2-{(E)-[2-(2-chlorobenzoyl)hydrazono]methyl}phenyl 4-(trifluoromethyl)benzenesulfonate] | < 5 µM | 
O=C(N/N=C/c1ccccc1OS(=O)(=O)c1ccc(C(F)(F)F)cc1)c1ccc(Cl)cc1Cl [Compound 74, 2-{(E)-[2-(2,4-dichlorobenzoyl)hydrazono]methyl}phenyl4-(trifiuoromethyl)benzenesulfonate] | < 5 µM | 
O=C(N/N=C/c1ccccc1OS(=O)(=O)c1ccc(C(F)(F)F)cc1)OCc1ccccc1 [Compound 75, benzyl (2E)-2-[2-({[4-(trifluoromethyl)phenyl]sulfonyl}oxy)-benzylidene]hydrazinecarboxylate] | < 5 µM | 
O=C(N/N=C/c1ccccc1OS(=O)(=O)c1ccc(C(F)(F)F)cc1)c1cccnc1 [Compound 76, 2-{(E)-[2-(pyridin-3-ylcarbonyl)hydrazono]methyl}phenyl 4-(trifluoromethyl)benzenesulfonate] | 5 to 50 µM | 
O=C(N/N=C/c1ccccc1OS(=O)(=O)c1ccc(C(F)(F)F)cc1)c1ccccc1[N+](=O)[O-] [Compound 77, 2-{(E)-[2-(2-nitrobenzoyl)hydrazono]methyl}phenyl 4-(trifluoromethyl)benzenesulfonate] | < 5 µM | 
Cc1ccc(S(=O)(=O)N/N=C/c2ccccc2OS(=O)(=O)c2ccc(C(F)(F)F)cc2)cc1 [Compound 78, 2-((E)-{2-[(4-methylphenyl)sulfonyl]hydrazono}methyl)-phenyl 4-(trifluoromethyl)benzenesulfonate] | 5 to 50 µM | 
CN(C)c1ccc(C(=O)N/N=C/c2ccccc2OS(=O)(=O)c2ccc(C(F)(F)F)cc2)cc1 [Compound 79, 2-((E)-{2-[4-(dimethylamino)benzoyl]hydrazono}methyl)-phenyl 4-(trifluoromethyl)benzenesulfonate] | 5 to 50 µM | 
O=C(CC1CC2CCC1C2)N/N=C/c1ccccc1OS(=O)(=O)c1ccc(C(F)(F)F)cc1 (stereo not shown) [Compound 80, 2-{(E)-[2-(2-bicyclo[2.2.1]hept-2-ylacetyl)hydrazono]methyl}phenyl 4-(trifluoromethyl)benzenesulfonate] |  | < 5 µM
C/C(=N\NC(=O)Cc1cccc(Cl)c1)c1ccccc1OS(=O)(=O)c1ccc(C(F)(F)F)cc1 [Compound 81, 2-{(1E)-N-[(3-chlorophenyl)acetyl]ethanehydrazonoyl}-phenyl 4-(trifluoromethyl)benzenesulfonate] | > 50 µM | 
O=C(Cc1nc(-c2cnccn2)no1)N/N=C/c1ccccc1OS(=O)(=O)c1ccc(C(F)(F)F)cc1 [Compound 82, 2-((E)-{2-[2-(3-pyrazin-2-yl-1,2,4-oxadiazol-5-yl)acetyl]hydrazono}methyl)phenyl 4-(trifluoromethyl)benzenesulfonate] | 5 to 50 µM | 

Compound | IC50 [1] | IC50 (Huh-7, 72 h)
CSc1ncccc1C(=O)N/N=C/c1ccccc1OS(=O)(=O)c1ccc(C(F)(F)F)cc1 [Compound 83, 2-[(E)-(2-{[2-(methylthio)pyridin-3-yl]carbonyl}hydrazono)methyl]phenyl 4-(trifluoromethyl)benzenesulfonate] | < 5 µM | 
O=C(CC1CCCC1)N/N=C/c1ccccc1OS(=O)(=O)c1ccc(C(F)(F)F)cc1 [Compound 84, 2-{(E)-[2-(2-cyclopentylacetyl)hydrazono]methyl}phenyl4-(trifluoromethyl)benzenesulfonate] | < 5 µM | 
CCOc1ccccc1C(=O)N/N=C/c1ccccc1OS(=O)(=O)c1ccc(C(F)(F)F)cc1 [Compound 85, 2-{(E)-[2-(2-ethoxybenzoyl)hydrazono]methyl}phenyl4-(trifluoromethyl)benzenesulfonate] | > 50 µM | 
CN(C)c1cccc(OCC(=O)N/N=C/c2ccccc2OS(=O)(=O)c2ccc(C(F)(F)F)cc2)c1 [Compound 86, 2-[(E)-(2-{2-[3-(dimethylamino)phenoxy]acetyl}hydrazono)-methyl]phenyl 4-(trifluoromethyl)benzenesulfonate] | > 50 µM | 
COc1ccccc1C(=O)N/N=C/c1ccccc1OS(=O)(=O)c1ccc(C(F)(F)F)cc1 [Compound 87, 2-{(E)-[2-(2-methoxybenzoyl)hydrazono]methyl}phenyl4-(trifluoromethyl)benzenesulfonate] | > 50 µM | 
O=C(N/N=C/c1ccccc1OS(=O)(=O)c1ccc(C(F)(F)F)cc1)c1ccccc1Br [Compound 88, 2-{(E)-[2-(2-bromobenzoyl)hydrazono]methyl}phenyl4-(trifluoromethyl)benzenesulfonate] | < 5 µM | 
O=C(N/N=C/c1ccccc1OS(=O)(=O)c1ccc(C(F)(F)F)cc1)c1cnccc1C(F)(F)F [Compound 89, 2-[(E)-(2-{[4-(trifluoromethyl)pyridin-3-yl]carbonyl}hydrazono)methyl]phenyl 4-(trifluoromethyl)benzenesulfonate] | 5 to 50 µM | 
O=C(N/N=C/c1ccccc1OS(=O)(=O)c1ccc(C(F)(F)F)cc1)c1ccccc1F [Compound 90, 2-{(E)-[2-(2-fluorobenzoyl)hydrazono]methyl}phenyl 4-(trifluoromethyl)benzenesulfonate] | 5 to 50 µM | 
O=C(N/N=C/c1ccccc1OS(=O)(=O)c1ccc(C(F)(F)F)cc1)C1CCN(Cc2ccccc2)C1=O (stereo not shown) [Compound 91, 2-((E)-{2-[(1-benzyl-2-oxopyrrolidin-3-yl)carbonyl]hydrazono}methyl)phenyl 4-(trifluoromethyl)benzenesulfonate] | > 50 µM | 
Cc1ncccc1C(=O)N/N=C/c1ccccc1OS(=O)(=O)c1ccc(C(F)(F)F)cc1 [Compound 92, 2-((E)-{2-[(2-methylpyridin-3-yl)carbonyl]hydrazono}methyl)phenyl 4-(trifluoromethyl)benzenesulfonate] | 5 to 50 µM | 
Cc1cccnc1C(=O)N/N=C/c1ccccc1OS(=O)(=O)c1ccc(C(F)(F)F)cc1 [Compound 93, 2-((E)-{2-[(3-methylpyridin-2-yl)carbonyl]hydrazono}methyl)phenyl 4-(trifluoromethyl)benzenesulfonate] | > 50 µM | 
O=C(CC12CC3CC(CC(C3)C1)C2)N/N=C/c1ccccc1OS(=O)(=O)c1ccc(C(F)(F)F)cc1 [Compound 94, 2-((E)-{2-[2-(1-adamantyl)acetyl]hydrazono}methyl)phenyl4-(trifluoromethyl)benzenesulfonate] | > 50 µM | 
O=C(CC1CCCO1)N/N=C/c1ccccc1OS(=O)(=O)c1ccc(C(F)(F)F)cc1 (stereo not shown) [Compound 95, 2-{(E)-[2-(2-tetrahydrofuran-2-ylacetyl)hydrazono]methyl}phenyl4-(trifluoromethyl)benzenesulfonate] | < 5 µM | 
COc1cccc(CNc2cccc(CC(=O)N/N=C/c3ccccc3OS(=O)(=O)c3ccc(C(F)(F)F)cc3)c2)c1 [Compound 96, 2-{(E)-[2-(2-{3-[(3-methoxybenzyl)amino]phenyl}acetyl)hydrazono]methyl}phenyl 4-(trifluoromethyl)benzenesulfonate] | > 50 µM | 
O=C(Cc1cccc(-n2cccc2)c1)N/N=C/c1ccccc1OS(=O)(=O)c1ccc(C(F)(F)F)cc1 [Compound 97, 2-[(E)-(2-{2-[3-(1H-pyrrol-1-yl)phenyl]acetyl}hydrazono)methyl]phenyl4-(trifluoromethyl)benzenesulfonate] | > 50 µM | 
O=C(Cc1cccc(N2CCCC2)c1)N/N=C/c1ccccc1OS(=O)(=O)c1ccc(C(F)(F)F)cc1 [Compound 98, 2-((E)-{2-[2-(3-pyrrolidin-1-ylphenyl)acetyl]hydrazono}methyl)phenyl4-(trifluoromethyl)benzenesulfonate] | 5 to 50 µM | 
CC(=O)Nc1ccc(CNc2cccc(CC(=O)N/N=C/c3ccccc3OS(=O)(=O)c3ccc(C(F)(F)F)cc3)c2)cc1 [Compound 99, 2-((E)-{2-[2-(3-{[4-(acetylamino)benzyl]amino}phenyl)acetyl]-hydrazono}methyl)phenyl 4-(trifluoromethyl)benzenesulfonate] | < 5 µM | 
